Drawing on US20260258016A1, “SUBSTITUTED PYRIDAZINE-3-CARBOXAMIDE COMPOUND SERVING AS TYK2 INHIBITOR” (Guangzhou Fermion Technology Co., Ltd., priority 2022, published 2026), this text covers IC50 for nine compounds.

For one assay, the target named is T1, JAK2 JH1 (Homo sapiens, UniProt O60674).
T1 construct: 5 μL/well of 2×JAK1 JH1/JAK2 JH1/JAK3 JH1/TYK2 JH1 kinase solutions
As to the kind of experiment: JAK2 JH1 kinase inhibition (HTRF). Format: biochemical. The following applies: read-out: Inhibition on kinase activity (IC50, μM) JAK2 JHI. As for the experimental part:
(§1) After the completion of incubation, 5 μL of a mixed solution containing a 2×TK-SUB-biotin substrate and ATP was added to each well, uniformly mixed by centrifugation, and incubated at 25° C. for 45 minutes (JAK1/JAK2) or 60 minutes (JAK3/TYK2). After completion of incubation, 10 μL of an assay mixture (TK Antibody-EU and Streptavidin-XL mixture) was added to each well, uniformly mixed by centrifugation, and incubated at 25° C. for 60 minutes (JAK1/JAK2) or 120 minutes (JAK3/TYK2). After completion of incubation, the solutions were transferred to a 4° C. freezer for incubation overnight, and fluorescence values were read on an Envision 2104 Multilabel Reader, and the IC50 of the compound was calculated using XL-Fit software.

A further assay concerns the target T2, JAK3 JH1 (Homo sapiens, UniProt P52333).
T2 construct: 5 μL/well of 2×JAK1 JH1/JAK2 JH1/JAK3 JH1/TYK2 JH1 kinase solutions
The experiment in a line: JAK3 JH1 kinase inhibition (HTRF). It is filed as biochemical. Particulars: read-out: Inhibition on kinase activity (IC50, μM) JAK3 JHI. As for the experimental part:
as §1
For orientation: TR-FRET usually uses a lanthanide donor and a delayed reading to cut background.

The target of a further assay is TYK2 JH2 pseudokinase (Homo sapiens, UniProt P29597). As to the kind of experiment: In vitro TYK2 JH2 enzyme binding assay (TR-FRET).
Chain of TYK2 JH2 pseudokinase (P29597 589-875 limits assumed): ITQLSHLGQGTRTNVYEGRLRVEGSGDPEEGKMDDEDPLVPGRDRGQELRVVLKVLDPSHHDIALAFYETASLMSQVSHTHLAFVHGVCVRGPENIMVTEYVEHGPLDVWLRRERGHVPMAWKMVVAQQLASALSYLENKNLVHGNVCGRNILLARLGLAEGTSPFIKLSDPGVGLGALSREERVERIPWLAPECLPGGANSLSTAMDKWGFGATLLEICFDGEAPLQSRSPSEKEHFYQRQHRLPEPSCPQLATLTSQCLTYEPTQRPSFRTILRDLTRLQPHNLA
In the next assay the target is T3, TYK2 JH1 (Homo sapiens, UniProt P29597).
T3 construct: 5 μL/well of 2×JAK1 JH1/JAK2 JH1/JAK3 JH1/TYK2 JH1 kinase solutions
T3 sequence (P29597 897-1176 limits assumed): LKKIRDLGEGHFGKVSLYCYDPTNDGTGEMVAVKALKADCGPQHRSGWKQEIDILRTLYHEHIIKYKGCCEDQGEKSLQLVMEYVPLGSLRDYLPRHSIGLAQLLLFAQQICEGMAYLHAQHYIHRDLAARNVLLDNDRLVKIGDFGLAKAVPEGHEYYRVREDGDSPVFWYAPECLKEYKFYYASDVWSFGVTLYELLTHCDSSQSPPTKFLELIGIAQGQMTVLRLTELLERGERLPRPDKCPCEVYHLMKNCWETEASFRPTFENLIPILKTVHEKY
The experiment in a line: TYK2 JH1 kinase inhibition (HTRF). Format: biochemical. The following applies: read-out: Inhibition on kinase activity (IC50, μM) TYK2 JHI. As for the experimental part:
as §1

The next assay deals with T4, JAK1 JH1 (Homo sapiens, UniProt P23458).
T4 construct: 5 μL/well of 2×JAK1 JH1/JAK2 JH1/JAK3 JH1/TYK2 JH1 kinase solutions
T4 sequence (P23458 875-1153 limits assumed): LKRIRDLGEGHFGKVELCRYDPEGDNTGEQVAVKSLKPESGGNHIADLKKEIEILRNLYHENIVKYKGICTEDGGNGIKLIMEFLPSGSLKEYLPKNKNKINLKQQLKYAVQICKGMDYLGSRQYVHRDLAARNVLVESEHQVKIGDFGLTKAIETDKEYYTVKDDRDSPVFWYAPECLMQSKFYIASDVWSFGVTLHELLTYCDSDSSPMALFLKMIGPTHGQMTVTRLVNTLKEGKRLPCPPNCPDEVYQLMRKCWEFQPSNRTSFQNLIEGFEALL
As to the kind of experiment: JAK1 JH1 kinase inhibition (HTRF). Format: biochemical. Particulars: read-out: Inhibition on kinase activity (IC50, μM) JAKI JHI.

Assay [1] concerns IL-2-induced STAT5 phosphorylation (JAK1/3) in CD3+ cells of human PBMC. The experiment in a line: IL-2-induced STAT5 phosphorylation (JAK1/3) in CD3+ cell subpopulations in human PBMC, flow cytometry. It is filed as cell-based. Particulars: IL-2 stimulation 20 min, read-out: IL-2-induced CD3+ pSTAT5 (JAK1/3) in hPBMC (IC50). As for the experimental part:
Purpose: The purpose of this test case was to test the inhibitory effect of the compound on IL-2-induced STAT5 phosphorylation using protein phosphorylation flow cytometric analysis technology.
Human PBMC cells were pre-incubated with the compounds, STAT5 was induced to phosphorylate under appropriate stimulation conditions, and corresponding cell subpopulations and targets were stained. Flow cytometry was used to read cell data and analyze the strength of phosphorylated antibody signals under different compound concentrations. PBMCs were resuspended and dispensed into a 96-well plate, 62.5 μL/well. 3.5 μL of 20× compound working solutions were added and incubated at 37° C. for 30 minutes. 5 μL of PE mouse anti-human CD3 (BD) was added and incubated for 30 min at 37° C. in the dark. 4 μL of 20×IL-2 (R&D) was added to each well and incubated at 37° C. in the dark for 20 minutes. All cells in the 96-well plate were transferred to a deep-well plate, 400 μL of a fixation working solution (Biolegend) was added to each well, and incubated at room temperature in the dark for 20 minutes. The cells were washed twice with PBS, and 400 μL of Perm Buffer III (BD) was added and incubated at 4° C. in the dark for 40 minutes. The cells were washed twice with PBS, and 100 μL of a STAT5 pY694 antibody working solution (BD) was added and incubated at room temperature for 40 minutes. After washing once with PBS, the cells were resuspended in 200 μL of a staining buffer and transferred to a sample plate. The antibody fluorescence intensity was analyzed using FlowJo software, and the IC50 of the compound was calculated using XL-Fit software.
Background: In flow cytometry, cells or beads pass a laser one at a time.

Read-outs that look alike come from different tables or passages of the source. Where only a bound is given, the exact number is not on record here.

T1 sequence (O60674 849-1124 limits assumed): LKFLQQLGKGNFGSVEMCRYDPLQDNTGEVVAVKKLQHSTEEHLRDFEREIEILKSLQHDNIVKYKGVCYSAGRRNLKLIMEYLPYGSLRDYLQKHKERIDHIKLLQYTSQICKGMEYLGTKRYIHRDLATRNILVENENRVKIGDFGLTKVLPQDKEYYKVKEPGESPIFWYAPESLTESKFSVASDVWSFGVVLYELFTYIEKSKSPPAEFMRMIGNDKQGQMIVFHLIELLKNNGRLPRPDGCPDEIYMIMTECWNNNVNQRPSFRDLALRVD
T2 sequence (P52333 822-1111 limits assumed): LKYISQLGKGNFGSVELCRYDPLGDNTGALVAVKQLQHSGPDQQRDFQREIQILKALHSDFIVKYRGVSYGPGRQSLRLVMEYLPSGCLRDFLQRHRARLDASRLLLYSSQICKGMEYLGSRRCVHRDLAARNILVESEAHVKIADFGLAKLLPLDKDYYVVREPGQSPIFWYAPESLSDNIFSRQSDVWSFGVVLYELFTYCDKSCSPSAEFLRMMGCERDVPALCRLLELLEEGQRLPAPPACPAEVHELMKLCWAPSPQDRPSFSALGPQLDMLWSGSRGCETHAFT
Experimental for JAK1 JH1: Purpose: The purpose of this test example was to examine the inhibitory effect of the compound on the kinase activity of JAK1 JH1/JAK2 JH1/JAK3 JH1/TYK2 JH1 using homogeneous time-resolved fluorescence resonance energy transfer (HTRF) technology.
100 nL/well of compound working solutions were transferred to a 384-well assay plate using an automated micropipetting system, 5 μL/well of 2×JAK1 JH1/JAK2 JH1/JAK3 JH1/TYK2 JH1 kinase solutions or assay buffer were added, uniformly mixed by centrifugation, and incubated at the room temperature 25° C. for 15 minutes. After the completion of incubation, 5 μL of a mixed solution containing a 2×TK-SUB-biotin substrate and ATP was added to each well, uniformly mixed by centrifugation, and incubated at 25° C. for 45 minutes (JAK1/JAK2) or 60 minutes (JAK3/TYK2). After completion of incubation, 10 μL of an assay mixture (TK Antibody-EU and Streptavidin-XL mixture) was added to each well, uniformly mixed by centrifugation, and incubated at 25° C. for 60 minutes (JAK1/JAK2) or 120 minutes (JAK3/TYK2).
Experimental for TYK2 JH2 pseudokinase: Purpose: The purpose of this test example was to use a fluorescence resonance energy transfer (TR-FRET) method to test the binding effect of the compound on a TYK2 JH2 pseudokinase, and then evaluate the affinity of the compound for TYK2 JH2.
DMSO-dissolved compounds were used to prepare 10 mM stock solutions, then 200× compounds having different gradient concentrations were prepared in a compound dilution plate, and transferred to an Echo plate. 75 nL of the compounds were transferred from the Echo plate to a 384-well assay plate using an Echo instrument, and 5 μL of 3×TYK2 JH2 pseudokinase (Bioduro), 5 μL of 3×Tb antibody (Cisbio) and 5 μL of 3×TRACER (Bioduro) were added to the 384-well assay plate, centrifuged for 30 seconds, and incubated at room temperature for 60 minutes.

Take `CCONC(=O)c1nnc(NC(=O)C2CC2)cc1Nc1cccc(-c2nc[nH]n2)c1OC` [Compound 1, 6-(Cyclopropylcarboxamido)-N-ethoxy-4-((2-methoxy-3-(1H-1,2,4-triazol-3-yl)phenyl)amino)pyridazine-3-carboxamide]: the IC50 on JAK2 JH1 is more than 10 µM; at JAK3 JH1, more than 10 µM; on TYK2 JH2 pseudokinase, 0.21 nM; on TYK2 JH1 it was more than 10 µM; on JAK1 JH1, more than 10 µM; in assay [1] (20 min), more than 30000 nM.
`CCONC(=O)c1nnc(NC(=O)C2CC2)cc1Nc1cccc(-c2ncn(CCOC)n2)c1OC` [Compound 2, 6-(Cyclopropylcarboxamido)-N-ethoxy-4-((2-methoxy-3-(1-(2-methoxyethyl)-1H-1,2,4-triazol-3-yl)phenyl)amino)pyridazine-3-carboxamide]: the IC50 is more than 10 µM on JAK2 JH1; more than 10 µM at JAK3 JH1; 0.19 nM at TYK2 JH2 pseudokinase; more than 10 µM at TYK2 JH1; more than 10 µM at JAK1 JH1; more than 30000 nM in assay [1] (20 min).
For the compound `CCONC(=O)c1nnc(NC(=O)C2CC2)cc1Nc1cccc(-c2ncn(CCF)n2)c1OC` [Compound 4, 6-(Cyclopropylcarboxamido)-N-ethoxy-4-((3-(1-(2-fluoroethyl)-1H-1,2,4-triazol-3-yl)-2-methoxyphenyl)amino)pyridazine-3-carboxamide], the IC50 on TYK2 JH2 pseudokinase amounted to 0.18 nM.
Same read-out and setting: as for `CCONC(=O)c1nnc(NC(=O)C2CC2)cc1Nc1cccc(-c2ncn(CC(F)F)n2)c1OC` [Compound 5, 6-(Cyclopropylcarboxamido)-4-((3-(1-(2,2-difluoroethyl)-1H-1,2,4-triazol-3-yl)-2-methoxyphenyl)amino)-N-ethoxypyridazine-3-carboxamide], the figure is 0.26 nM; as for `CCONC(=O)c1nnc(NC(=O)C2CC2)cc1Nc1cccc(-c2ncn(CC(=O)O)n2)c1OC` [Compound 7, 2-(3-(3-((6-(Cyclopropylcarboxamido)-3-(ethoxycarbamoyl)pyridazine-4-yl)amino)-2-methoxyphenyl)-1H-1,2,4-triazol-1-yl)acetic acid], 0.29 nM; as for `CCONC(=O)c1nnc(NC(=O)C2CC2)cc1Nc1cccc(-c2ncn(CCC(=O)O)n2)c1OC` [Compound 8, 3-(3-(3-((6-(Cyclopropylcarboxamido)-3-(ethoxycarbamoyl)pyridazine-4-yl)amino)-2-methoxyphenyl)-1H-1,2,4-triazol-1-yl)propanoic acid], 0.29 nM.
Same read-out and setting: for `CCONC(=O)c1nnc(NC(=O)C2CC2)cc1Nc1cccc(-c2ncn(CCCC(=O)O)n2)c1OC` [Compound 9, 4-(3-(3-((6-(Cyclopropylcarboxamido)-3-(ethoxycarbamoyl)pyridazine-4-yl)amino)-2-methoxyphenyl)-1H-1,2,4-triazol-1-yl)butanoic acid] the value was 0.42 nM.
Same read-out and setting: as for `CCONC(=O)c1nnc(NC(=O)C2CC2)cc1Nc1cccc(-c2ncn(CCO)n2)c1OC` [Compound 10, 6-(Cyclopropylcarboxamide)-N-ethoxy-4-((3-(1-(2-hydroxyethyl)-1H-1,2,4-triazol-3-yl)-2-methoxyphenyl)amino)pyridazine-3-carboxamide], the figure is 0.28 nM.
Take BMS-986165 [reference compound]: in assay [1], the IC50 is 409 nM.
